Laboratory results published in patent US20190175560A1, “MEBENDAZOLE CANCER THERAPIES AND METHODS OF USE” (Shepherd Therapeutics, Inc., priority 2017, published 2019).

Tests used:
Assay type in all cases: cell-based
U-CH2 chordoma cell line = assay: MBZ cell viability dose response (CellTiter Glo); settings: 72 hours, up to the highest concentration, 50 μM
Description: (§1) The effect of mebendazole administration on cell lines derived from exemplary cancers was tested. One approach to determining the effectiveness of mebendazole in the treatment of cancer comprises in vitro testing. In this approach, cancer cell lines representative of the cancers of the disclosure are cultured in vitro according to standard techniques (see, for example, Human Cell Culture Protocols, Third Edition, […] R. D. Hughes, Editors, Humana Press, 2012), and increasing concentrations of mebendazole are administered to determine the IC50 value. As used herein, the term “IC50 value” refers to the concentration of a compound (for example mebendazole) wherein the response to that compound (such as inhibited cellular viability) is reduced by half. The IC50 is thus a measure of the effectiveness of a compound in inhibiting a biological process. […] Based on this biology, several rare cancer tumor cell lines including neuroblastoma, rhabdomyosarcoma and Ewing sarcoma were analyzed for sensitivity to MBZ treatment in vitro. […] In all cases, including those described below, the viable cells were determined using the CellTiter Glo® kit and an IC50 curve was generated using the PRISM software. […] A dose response curve was generated using the PRISM software, with the intent of determining an IC50 for the cell lines following treatment of MBZ.

[1] = system: MUG-Chor1 chordoma cell line; assay: MBZ cell viability dose response (CellTiter Glo); settings: 72 hours, up to the highest concentration, 50 μM
Description: as §1

[2] = system: TC-71 Ewing's sarcoma cell line; assay: MBZ cell viability IC50 (CellTiter Glo); settings: 72 hours
Description: (§2) The effect of mebendazole administration on cell lines derived from exemplary cancers was tested. One approach to determining the effectiveness of mebendazole in the treatment of cancer comprises in vitro testing. In this approach, cancer cell lines representative of the cancers of the disclosure are cultured in vitro according to standard techniques (see, for example, Human Cell Culture Protocols, Third Edition, […] R. D. Hughes, Editors, Humana Press, 2012), and increasing concentrations of mebendazole are administered to determine the IC50 value. As used herein, the term “IC50 value” refers to the concentration of a compound (for example mebendazole) wherein the response to that compound (such as inhibited cellular viability) is reduced by half. The IC50 is thus a measure of the effectiveness of a compound in inhibiting a biological process. […] Based on this biology, several rare cancer tumor cell lines including neuroblastoma, rhabdomyosarcoma and Ewing sarcoma were analyzed for sensitivity to MBZ treatment in vitro. […] In all cases, including those described below, the viable cells were determined using the CellTiter Glo® kit and an IC50 curve was generated using the PRISM software.

[3] = system: SK-UT-1B leiomyosarcoma cell line; assay: MBZ cell viability IC50 (CellTiter Glo); settings: Homo sapiens, Skut1B, 72 hours
Description: as §2

[4] = system: CHLA-9 Ewing's sarcoma cell line; assay: MBZ cell viability IC50 (CellTiter Glo); settings: 72 hours
Description: as §2

[5] = system: SW-13 adrenal cortical carcinoma cell line; assay: MBZ cell viability IC50 (CellTiter Glo); settings: Homo sapiens, SW13, 72 hours
Description: as §2

[6] = system: SNU-16 gastric carcinoma cell line; assay: MBZ cell viability IC50 (CellTiter Glo); settings: Homo sapiens, 72 hours
Description: as §2

[7] = system: Rh-41 rhabdomyosarcoma cell line; assay: MBZ cell viability IC50 (CellTiter Glo); settings: Homo sapiens, Rh41, 72 hours
Description: as §2

[8] = system: TC-32 Ewing's sarcoma cell line; assay: MBZ cell viability IC50 (CellTiter Glo); settings: Homo sapiens, 72 hours
Description: as §2

[9] = system: Rh-30 rhabdomyosarcoma cell line; assay: MBZ cell viability IC50 (CellTiter Glo); settings: Rh30, 72 hours
Description: as §2

[10] = system: NCI-H295R adrenal cortical carcinoma cell line; assay: MBZ cell viability IC50 (CellTiter Glo); settings: Homo sapiens, 72 hours
Description: as §2

SNU-16 cells = assay: MBZ vs HA-PLGA-MBZ cell viability IC50 (Cell Titer Glo); settings: Homo sapiens, 72 hour incubation
Text: (§3) An IC50 for each treatment was established using the PRISM software.

SKOV-3 cells = assay: as above; settings: Homo sapiens, SK-OV-3, 72 hour incubation
Text: as §3

DMS-114 cells = assay: as above; settings: Homo sapiens, 72 hour incubation
Text: as §3

CHP-212 cells = assay: as above; settings: Homo sapiens, 72 hour incubation
Text: as §3

SK-UT-1 cells = assay: as above; settings: Homo sapiens, 72 hour incubation
Text: as §3

COV-362 cells = assay: as above; settings: COV362, 72 hour incubation
Text: as §3

COLO-205 cells = assay: as above; settings: Homo sapiens, 72 hour incubation
Text: as §3

PC-12 cells = assay: as above; settings: Rattus norvegicus, 72 hour incubation
Text: as §3

[11] = system: SKOV-3 ovarian carcinoma cell line; assay: MBZ cell viability IC50 (CellTiter Glo); settings: Homo sapiens, SK-OV-3, 72 hours, 0-50 μM
Description: The effect of mebendazole administration on cell lines derived from exemplary cancers was tested. One approach to determining the effectiveness of mebendazole in the treatment of cancer comprises in vitro testing. In this approach, cancer cell lines representative of the cancers of the disclosure are cultured in vitro according to standard techniques (see, for example, Human Cell Culture Protocols, Third Edition, […] R. D. Hughes, Editors, Humana Press, 2012), and increasing concentrations of mebendazole are administered to determine the IC50 value. As used herein, the term “IC50 value” refers to the concentration of a compound (for example mebendazole) wherein the response to that compound (such as inhibited cellular viability) is reduced by half. The IC50 is thus a measure of the effectiveness of a compound in inhibiting a biological process. […] Based on this biology, several rare cancer tumor cell lines including neuroblastoma, rhabdomyosarcoma and Ewing sarcoma were analyzed for sensitivity to MBZ treatment in vitro. […] In all cases, including those described below, the viable cells were determined using the CellTiter Glo® kit and an IC50 curve was generated using the PRISM software. […] FIGS. 1 and 2 show the effect of mebendazole on 3 ovarian cancer derived cell lines, A2780cis, SKOV-3 and TOV-112D at 24 hours, 48 hours and 72 hours. […] Percent cell viability is shown on the Y-axis, from 0 to 150 in units of 25. A2780cis cell data are represented by filled circles and a dotted line. SKOV-3 cell data are represented by squares and a solid line. TOV-112D cell data are represented by triangles and a dashed line. […] In FIG. 2, on the X-axis, the log concentration of mebendazole in μM, indicated from -4 to 4 in units of 2. In FIG. 2, on the Y-axis, percent viability is shown, from 0 to 125 in units of 25.

COC(=O)Nc1nc2ccc(C(=O)c3ccccc3)cc2[nH]1 [MBZ, methyl N-(6-benzoyl-1H-benzimidazol-2-yl)carbamate]
sensitivity to MBZ treatment (dose response) (U-CH2 chordoma cell line): largely resistant
sensitivity to MBZ treatment (dose response) [1]: largely resistant
IC50 [2]: 470 nM
IC50 [3]: 100 nM
IC50 [4]: 1020 nM
IC50 [5]: 260 nM
IC50 [6]: 420 nM
IC50 [7]: 490 nM
IC50 [8]: 410 nM
IC50 [9]: 100 nM
IC50 [10]: 100 nM
IC50 (SNU-16 cells): 110 nM
IC50 (SKOV-3 cells): 680 nM
IC50 (DMS-114 cells): 800 nM
IC50 (CHP-212 cells): 130 nM
IC50 (SK-UT-1 cells): 260 nM
IC50 (COV-362 cells): 330 nM
IC50 (COLO-205 cells): 270 nM
IC50 (PC-12 cells): 1030 nM
IC50 [11]: ~4400 nM
